Entries after “also recorded” stand apart in the source; their conditions may differ. Marks after values point to notes of the source that are not given here.
What was measured:
log D = type: physicochemical
[1] = tested on: Mouse 3 day unilateral ureter obstruction (UUO) model; assay: Mouse 3 day unilateral ureter obstruction (UUO) model, macrophage infiltration by flow cytometry (CD45, F4/80); type: in vivo; conditions: 3 day UUO
Description: As a placebo, a solution without active ingredient was used (group 2), and a sham operated group with unligated kidney was used as a positive control (group 1)
The infiltration of macrophages in response to the renal injury was measured in a flow cytometry assay with detection antibodies binding to the pan-leukocyte marker CD45, as well as to the macrophage-specific antigen, F4/80.

[2] = tested on: Mouse 10 day unilateral ureter obstruction (UUO) model; assay: Mouse 10 day UUO model, renal mRNA expression of fibrotic markers (TaqMan real time PCR); type: in vivo; conditions: for Col1α1 mRNA expression, percentage vs. placebo / Col3α1 mRNA expression, percentage vs. placebo / Col4α1 mRNA expression, percentage vs. placebo / αSMA mRNA expression, percentage vs. placebo: kidney
Description: (§1) The study was performed on male C57/B16J mice (age: 7-8 weeks) that were obtained from Charles River. Mice were anesthetized with continuous inhaled isoflurane, and the left ureter was exposed via a mid-abdominal incision. The mid-ureter was obstructed by two point ligation with silk sutures. The SHAM-operated mouse (n=6) underwent the same procedure except for the obstruction of the left ureter.
(§2) The mice were randomized into four groups (n=10 each group): UUO plus vehicle (10% EtOH/40% PEG/50% water), UUO plus 3 [mg/kg] […] SHP099. Mice were dosed bidaily with vehicle and SHP099. The forth group of mice with UUO was treated once daily with Tivozanib (technical control). At ten days after surgery, mice were euthanized, and kidneys were collected and divided in two parts.
(§3) One part was snap-frozen in liquid nitrogen for RNA analysis. The other part was stored in Davidson's fixative for the preparation of histological sections. Total RNA was isolated from parts of harvested kidneys. Kidney tissue was homogenized and RNA was obtained and transcribed to cDNA. Using TaqMan real time PCR renal mRNA expression of fibrotic markers was analyzed in kidney tissues. For the assessment of fibrosis on the protein level paraffin tissue sections were stained with alpha-smooth muscle actin (αSMA) and Sirius Red/Fast Green Collagen Stainings using standard procedures.
(§4) All data are expressed as means±S.D. Differences between groups were analyzed by one-way ANOVA with Dunnett's corrections for multiple comparisons. Statistical significance was defined as p<0.05.
(§5) After 10 days, the weight of the kidneys was measured, and RNA-markers αSMA, Col1α1, Col3α1, Col4α1 were measured with RT PCR. Further, histological measurements of αSMA (Alpha smooth muscle actin) and Collagen (SR/FG) were carried out.

[3] = tested on: Mouse 10 day unilateral ureter obstruction (UUO) model; assay: Mouse 10 day UUO model, histology (αSMA and Sirius Red/Fast Green collagen staining); type: in vivo
Description: as §1, §2, §3
Quantitative measurements of alpha-smooth muscle actin (αSMA)-positive as well as Sirius Red (Collagen) positive areas within the kidneys were obtained by computer image analysis using the Axio Scan Z1 (Zeiss) microscope and the Zen software.
as §4, §5

[4] = tested on: mouse renal ischemia reperfusion injury (IRI) model; assay: Mouse uninephrectomy/renal ischemia reperfusion injury (uIRI) model; type: in vivo; conditions: 30 [mg/kg] SHP099 p.o. BID
Description: Experiments indicative for acute kidney diseases were carried out in a uninephrectomy/renal ischemia reperfusion injury (uIRI) model (example 3), as e.g. disclosed in Skrypnyk et al (2013).
In a mouse renal ischemia reperfusion injury (IRI) model, uninephrectomy (UNX) with unilateral renal ischemia (RI), was carried out. Therein, one kidney is removed and the remaining kidney undergoes ischemia/reprefusion via renal artery claming, Animals were then treated according to the following groups: […]

[5] = SHP099 3 and 30 mg/kg bidaily, result in words
[6] = Tivozanib once daily (technical control)

With `CC1(N)CCN(c2cnc(-c3cccc(Cl)c3Cl)c(N)n2)CC1` [SHP099] the “log D” value (log D) was 1.7, the macrophage infiltration ([1]; 100 mg/kg SHP099 BID p.o.) was “significant, dose-dependent reduction” and the “collagen RNA expression in kidney (Collagen 1a1, 3a1, 4a1)” value [2, 5] was “strong and very significant reduction; also recorded: dose-dependent reduction”. The “αSMA RNA expression in kidney” value [2, 5] was “strong and very significant reduction; also recorded: dose-dependent reduction”, the “Col1α1 mRNA expression, percentage vs. placebo” value ([2]; 3 [mg/kg] SHP099 bidaily) was 77% and the “Col3α1 mRNA expression, percentage vs. placebo” value ([2]; 3 [mg/kg] SHP099 bidaily) was 82%. The “Col4α1 mRNA expression, percentage vs. placebo” value ([2]; 3 [mg/kg] SHP099 bidaily) was 85%, the “αSMA mRNA expression, percentage vs. placebo” value ([2]; 3 [mg/kg] SHP099 bidaily) was 81% and the “Col1α1 mRNA expression, percentage vs. placebo” value ([2]; 30 [mg/kg] SHP099 bidaily) was 51%. For the same compound, the “Col3α1 mRNA expression, percentage vs. placebo” value ([2]; 30 [mg/kg] SHP099 bidaily) was 54%, the “Col4α1 mRNA expression, percentage vs. placebo” value ([2]; 30 [mg/kg] SHP099 bidaily) was 56% and the “αSMA mRNA expression, percentage vs. placebo” value ([2]; 30 [mg/kg] SHP099 bidaily) was 47%. The “αSMA-positive area within the obstructed kidney” value ([3]; 3 [mg/kg] SHP099 bidaily) was “significant reduction”, the “collagen deposition in kidneys” value ([3]; SHP099 treated, compared to untreated or Tivozanib treated mice, dose not stated) was “strong and significant reduction” and the “aSMA-positive area in kidneys” value ([3]; SHP099 treated, dose not stated) was “strong and significant reduction”. The “Collagen content (SR/FG staining)” value ([3]; both dosages of SHP099 (3 and 30 mg/kg bidaily)) was “dose dependently and significantly reduced”, the “podocyte marker NHPS1 expression” value [4] was “reproducible and strong effects” and the serum creatinine [4] was “robust reduction”. For the same compound, the serum urea [4] was “mild reduction”.

In the case of `COc1cc2nccc(Oc3ccc(NC(=O)Nc4cc(C)on4)c(Cl)c3)c2cc1OC` [Tivozanib], the macrophage infiltration ([1]; 3 mg/kg Tivozanib QD p.o., in comparison with SHP099) is reported as “weaker effects”, the “Col1α1 mRNA expression, percentage vs. placebo” value [2, 6] is reported as 62% and the “Col3α1 mRNA expression, percentage vs. placebo” value [2, 6] is reported as 76%. The “Col4α1 mRNA expression, percentage vs. placebo” value [2, 6] was 71%, the “αSMA mRNA expression, percentage vs. placebo” value [2, 6] was 64* % and the “Collagen content (SR/FG staining)” value [3, 6] was “significantly reduced”. For the same compound, the “αSMA-positive area within the obstructed kidney” value [3, 6] was “significantly reduced”.

From patent US20210230300A1, “INHIBITORS OF SHP2” (Bayer Aktiengesellschaft, priority 2018, published 2021)
